# Experimental data published in patent publication US20240228542A1, “LYTIC DOMAIN FUSION CONSTRUCTS, CHECKPOINT INHIBITORS, AND METHODS OF MAKING AND USING SAME” (A28 Therapeutics Inc., priority 2020, published 2024).
# Columns and labels:
# [1] = test system: EMT-6 murine mammary carcinoma; assay: EMT-6 murine mammary carcinoma syngeneic model, tumor growth delay; type: in vivo, BALB/c mice; settings: for median TTE: control 16.5 days
# Description: The present study consisted of six efficacy groups (n=10) and three sampling groups (n=5) of female BALB/c mice implanted with EMT-6 tumor cells (mean volume: 61-85 mm^3). Dosing was initiated on Day (D) 1 of the study, unless otherwise noted. […] Anti-CTLA-4 was administered i.p. at 100 μg/animal on Day 2 and 50 μg/animal on Day 5 and Day 8.
# Group 1 mice served as controls and received i.v. saline (vehicle), qod×to end. Group 2 received anti-CTLA-4. Group 3 received Phor 18-LHRH at 0.4 μg/animal qod×8 followed by 20 μg/animal qod to end (starting on Day 17). […] Group 5 received Phor 18-LHRH at 0.4 μg/animal q.o.d.×8 followed by 20 μg/animal qod to end (starting on Day 17) in combination with anti-CTLA-4.
# The study endpoint was a tumor volume of 2000 mm^3 or 45 days, whichever came first. Tumor measurements were taken twice weekly until D45 with individual animals exiting the study upon reaching the tumor volume endpoint.
# Efficacy was determined from tumor growth delay (TGD), the increase in median time-to-endpoint (TTE) in treated versus control mice, and from comparison of survival curves using logrank analysis. Response was additionally evaluated based on the number of study survivors, partial regression (PR) and complete regression (CR) responses, and logrank significance of differences in survival. Tolerability of the various treatments was assessed by body weight (BW) measurements and frequent observation for clinical symptoms and treatment-related (TR) side effects.
# Four sampling groups consisting of 5 animals each were included in this study: saline controls. […] Animals in these groups were sacrificed on day 17, tumors were excised, formalin fixed and paraffin embedded to obtain H&E stained sections for histological evaluation of the tumors. Tumor samples were collected for analysis and stained with hematoxylin & cosin for pathological evaluation.
# [2] = test system: IG10 murine ovarian carcinoma; assay: Orthotopic IG10 murine ovarian carcinoma syngeneic model; type: in vivo, C57BL/6 mice
# Description: C57BL/6 female mice were injected orthotopically with luciferase labeled IG10 murine ovarian cancer cell line (1x10^6 cells). Mice were monitored for tumor take using a luminescent imaging system. […] Each treatment and control group consisted of 10 mice. At necropsy on day 28, ascites fluids were removed and measured, and tumors were removed and weighed.
# Significance between treatment groups was assessed using Wilcoxon signed Rank test analysis and ANOVA.
# MDA-MB-231 = assay: Cytotoxicity in MDA-MB-231 breast cancer cells; type: cell-based; settings: MDA-MB-231 breast cancer cell line; read-out: IC50 in Human Cancer Cell Lines
# Description: MDA-MB-435S.luc cells were grown in Leibovitz's L 15 medium, 10% fetal bovine serum, 0.01 mg/ml bovine insulin, 100 IU/ml penicillin, 100 microg/ml streptomycin. The cells were cultured in tight closed flasks. The incubations were conducted using 96 well plates at 10,000 cells per well. Cells were typically seeded into 96 well plates and media was replaced after 48 hours of incubation. Each assay was conducted at increasing concentrations of 0, 0.001, 0.01, 0.05, 0.1, 0.5, 1, 2, 5, 10 and 100 micromolar doses of lytic peptide-binding domain conjugate. Each lytic peptide-binding domain conjugate provided in lyophilized form and was freshly dissolved in saline and added to cells. The duration of incubation was typically 24 h, and cell viability assays were conducted using formazan conversion assays (MTT assay). Controls contained saline or 0.1% triton as reference for 0 and 100% cell death, respectively.
# To ascertain the IC50 of various fusion constructs on different human cancer cell lines compared to cisplatinum, IC50 of fusion constructs were evaluated as in Table 3.
# PD-L1 = PD-L1 expression in ID8 and IG10 cells after EP-100 (RT-PCR, Western blot); type: cell-based, murine
# Description: To determine the potential role of EP-100 in immune activation, the effect on PD-L1 expression in murine ovarian cancer cells was determined in the presence of EP-100. […] PD-L1 mRNA was increased with treatment with as low as 0.5 μm EP-100 for 4 hours, and PD- L1 protein was increased after 6 hours of treatment.
# ID8 ovarian cancer cells = assay: Cytokine and chemokine secretion by ID8 cells (array, RT-PCR, ELISA); type: cell-based, murine
# Description: Cytokine Array—Supernatant from cultured cells was stored at −20° C. for batch analyses to measure cytokines. The mouse cytokine array (R&D Systems, Inc.) was purchased and used to detect the secretion of 111 cytokines in the experiments groups. These Proteome Profiler Arrays were performed according to the manufacturer's protocol.
# The effect of EP-100 on cytokines and chemokines was analyzed using a proteome profiler murine cytokine array in the CD8^+ T cell activation in ID8 ovarian cancer cells. […] LIF and CXCL10 secretion were decreased after treatment with EP-100 for 4 hours. LDL receptor secretion was increased by EP-100 at 2 hours and 12 hours, while IL1α, CCL20, VEGF, and IL33 were secreted after EP-100 treatment (FIG. 19 B). Among the cytokines, IL33 inhibited tumor growth and modified the tumor microenvironment. Using RT-PCR and ELISA the induction of IL33 through EP-100 was analyzed. IL33 mRNA expression was increased in 30 minutes after EP-100 treatment, and secretion was increased after 2 hours of EP-100 treatment, and this effect continued through 12 hours (FIGS. 19C and 19D). […] To determine the IL33 role in the tumor microenvironment, we tested the IL33 effect on T cell differentiation in vitro. We isolated naïve CD4^+ T cells from mouse […], and further cultured for 5 days in CD3 and CD28, and mouse IL-2 containing media to differentiated CD8^+ T cell. LHRH-R mRNA expression and EP-100-induced cytoic effect was lower in both naïve T cells and CD8^+ T cells than in ID8 cells (FIGS. 20A and 20B).
# [3] = Phor18-LHRH at 0.4 μg and 20 μg/animal (alone or with anti-CTLA-4)
# [4] = Phor18-LHRH at 10 μg and 60 μg/animal (alone or with anti-CTLA-4)
sequence,measurement,setting,value
KFAKFAKKFAKFAKKFAKQHWSYGLRPG [Phor18-LHRH],TGD,[1]; [3],6%
same,median TTE,[1]; [3],17.5 days
same,TGD,[1]; [4],5%
same,median TTE,[1]; [4],17.4 days
same,histological evaluation of tumors,[1]; animals sacrificed on day 17,inflammatory immune cell infiltration and necrosis
same,relative reduction of ascites volumes,[2],60.2%
same,tumor weights at necropsy,"[2]; Mean±SEM, N=10, controls 1.04±0.09 g",0.45 ± 0.08 g
same,ascites volumes,"[2]; Mean±SEM, N=10, vehicle 9.06±1.3 ml",3.6 ± 0.7 mL
same,IC50,MDA-MB-231,5.5 ± 1.2 µM
same,lowest concentration increasing PD-L1 mRNA,PD-L1; 4 hours,0.5 μm
same,PD-L1 mRNA and protein levels,"PD-L1; ID8 and IG10 cells, protein after 6 hours",both PD-L1 mRNA and protein levels were increased
same,time to increased IL33 secretion,"ID8 ovarian cancer cells; ID8 cells, ELISA, continued through 12 hours",2 h
same,time to increased IL33 mRNA expression,"ID8 ovarian cancer cells; ID8 cells, RT-PCR",30 min
same,secretion of cytokines and chemokines (array),"ID8 ovarian cancer cells; ID8 cells, LIF, CXCL10, IL1α, CCL20, VEGF, IL33, LDL receptor",increased secretion of various molecules
same,IL33 secretion,"ID8 ovarian cancer cells; in vitro, FIG. 19D",IL33 secretion was increased by EP-100
